Laboratory results reported in patent US20090209469A1, “Use of Exendins and GLP-1 Receptor Agonists for Altering Lipoprotein Particle Size and Subclass Composition” (priority 2006, published 2009).

Assays:
[1] = test system: Patients with type 2 diabetes inadequately controlled by sulphonylurea and metformin; experiment: Fibrinogen concentration by the von Clauss clotting method; format: in vivo, human; details: type 2 diabetes patients
Protocol: For test meal data, postprandial glucose incremental AUC0-4h is calculated at baseline and week 52.
Fibrinogen activity is measured by the von Clauss clotting method. By the von Clauss clotting method, thrombin is added to a test sample and the time until clotting is measured. Fibrinogen concentration is determined by comparing clotting time for the test sample to the clotting time of a standard curve for various reference plasmas.
Fibrinogen is measured at baseline, Week 16, Week 52, or at early termination of the study.

[2] = test system: Patients with type 2 diabetes inadequately controlled by sulphonylurea and metformin; experiment: Lipoprotein subclass particle concentrations and average particle diameters by proton NMR spectroscopy, 1-year open-label trial (test meal study); format: in vivo, human; details: change from baseline to endpoint (week 52), type 2 diabetes patients
Protocol: In the context of the present invention, lipoprotein concentrations are measured according to standard nuclear magnetic resonance techniques, where the measured amplitudes of characteristic lipid methyl group signals provide particle concentrations.
In the context of the present invention, lipoprotein subclass particle concentrations and average particle diameters are measured using proton nuclear magnetic resonance spectroscopy using the algorithm of LipoScience, Inc. See e.g., Festa et al., Nuclear Magnetic Resonance Lipoprotein Abnormalities in Prediabetic Subjects in the Insulin Resistance Artherosclerosis Study, Circulation, 111:3465-3472 (2005). […]
Lipoprotein subclass particle concentrations and average particle diameters are measured using proton nuclear magnetic resonance spectroscopy. See e.g., Festa et at., Nuclear Magnetic Resonance Lipoprotein Abnormalities in Prediabetic Subjects in the Insulin Resistance Artherosclerosis Study, Circulation, 111:3465-3472 (2005).
The particle concentrations of different lipoprotein subclasses are obtained by measuring the amplitudes of the characteristic lipid methyl NMR signals. The signal amplitudes of various subclasses are extracted from the overall lipid methyl group signal with a spectral deconvolution algorithm (Lipo Science, Inc.). See e.g., Festa. VLDL and LDL particle concentrations are given in nanomoles per liter. HDL particle concentrations are provided in micromoles per liter.
Average particle sizes (in nanometers diameter) are computed as the sum of the diameter of the particle subclass multiplied by the relative mass percentage of the subclass as estimated from the amplitude of its methyl NMR signal.
Particle concentrations and sizes are compared before and after administration of an exendin or exendin agonist. See e.g., Table 1.

biphasic insulin aspart 30/70 was tested, and the “Fibrinogen level, mean, Baseline” value ([1]; baseline, before treatment) was 4.22 g/L, the “Fibrinogen level, mean, Endpoint (LOCF)” value ([1]; endpoint, last post-baseline measurement carried forward (Week 16, Week 52 or early termination)) was 4.16 g/L and the “HDL Particle Size, Δ mean” value [2] was “+0.04 nm”. For the same substance, the “VLDL Particle Size, Δ mean” value [2] was −1.6 nm, the “LDL Particle Size, Δ mean” value ([2]; exenatide 5 μg BID 4 weeks then 10 μg BID 48 weeks vs biphasic insulin aspart 30/70) was “+0.11 nm” and the “Large HDL, Δ mean” value ([2]; particle concentration) was “+1.0 μmol/L”. For the same substance, the “Large LDL, Δ mean” value ([2]; particle concentration) was “+37.7 nmol/L”, the “Small LDL, Δ mean” value ([2]; particle concentration) was -25.8 nmol/L and the “Small VLDL, Δ mean” value ([2]; particle concentration) was “+8.5 nmol/L”. For the same substance, the “Total HDL, Δ mean” value ([2]; particle concentration) was “+2.5 μmol/L”, the “Total LDL, Δ mean” value ([2]; particle concentration) was “+5.0 nmol/L” and the “Total VLDL, Δ mean” value ([2]; particle concentration) was “+12.9 nmol/L”. The “Very Small LDL, Δ mean” value ([2]; particle concentration) was -17.0 nmol/L.
